According to PubChem BioAssay (NCI):
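Tested at 5 concentrations; 48 h exposure; 96-well plates; endpoints linearly interpolated, else capped at highest concentration. The concentration for 50% growth inhibition is given as GI50. TGI is the concentration that stops growth completely.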

How the values were obtained:
Test in all cases: NCI tumour cell line growth inhibition, 48 h
MDA-N = test system: MDA-N
DLD-1 colon = test system: DLD-1 colon
DMS 273 small cell lung = test system: DMS 273 small cell lung
HOP-18 NSCLC = test system: HOP-18 NSCLC
KM20L2 colon = test system: KM20L2 colon
LXFL 529 NSCLC = test system: LXFL 529 NSCLC
M19-MEL melanoma = test system: M19-MEL melanoma
XF 498 CNS = test system: XF 498 CNS
DMS 114 small cell lung = test system: DMS 114 small cell lung

Structure (SMILES)	GI50 (MDA-N)	TGI (MDA-N)	TGI (DLD-1 colon)	TGI (DMS 273 small cell lung)	TGI (HOP-18 NSCLC)	TGI (KM20L2 colon)	TGI (LXFL 529 NSCLC)	TGI (M19-MEL melanoma)	TGI (XF 498 CNS)	TGI (DMS 114 small cell lung)	GI50 (DLD-1 colon)	GI50 (DMS 273 small cell lung)	GI50 (KM20L2 colon)	GI50 (LXFL 529 NSCLC)	GI50 (M19-MEL melanoma)	GI50 (XF 498 CNS)
O=C(O)CC(S)C(=O)O.[Li+].[Sb] (stereo not given)	> 100 µM	> 100 µM	–	–	–	–	–	–	–	–	–	–	–	–	–	–
COC(=O)/C=C(C)/C=C/c1c(C)c(C(C)=O)c(C)n1C	–	–	> 100 µM	> 100 µM	> 100 µM	> 100 µM	> 100 µM	> 100 µM	> 100 µM	–	–	–	–	–	–	–
O=[N+]([O-])c1cc(C(F)(F)F)cc2n[se]nc12	–	3.85 µM	8.93 µM	27.3 µM	8.96 µM	16.4 µM	3.14 µM	10.6 µM	5.66 µM	5.92 µM	–	–	–	–	–	–
CC(O)(c1ccc(OCCC[N+](C)(C)C)cc1)C(C)(O)c1ccc(OCCC[N+](C)(C)C)cc1 (stereo not given)	–	–	> 100 µM	> 100 µM	> 100 µM	> 100 µM	> 100 µM	–	–	> 100 µM	–	–	–	–	–	–
CC(Oc1ccc2c(=O)cc(-c3ccccc3)oc2c1)C(=O)O (stereo not given)	–	–	> 100 µM	–	> 100 µM	> 100 µM	> 100 µM	> 100 µM	> 100 µM	> 100 µM	–	–	–	–	–	–
CCCCCCCCCCCCCP(=O)(OC)OC	–	–	30.5 µM	33.1 µM	32.9 µM	42.8 µM	33.5 µM	33.4 µM	31.8 µM	37 µM	–	–	–	–	–	–
O=C1C(c2ccccc2)=[N+]([O-])c2cc([N+](=O)[O-])ccc21	–	–	46.9 µM	–	> 100 µM	47.3 µM	–	32.9 µM	39.3 µM	27.3 µM	–	–	–	–	–	–
C=C1CCCC2OC(OC)CCC12 (stereo not given)	–	–	> 100 µM	> 100 µM	> 100 µM	> 100 µM	> 100 µM	> 100 µM	> 100 µM	> 100 µM	–	–	–	–	–	–
O=C(CO)CC(=O)C(=O)Nc1cccc(C(F)(F)F)c1	–	–	> 100 µM	> 100 µM	–	> 100 µM	> 100 µM	–	> 100 µM	–	–	–	–	–	–	–
CC(=O)CCn1[nH]c(=O)c(Cl)c(Cl)c1=O	–	–	> 100 µM	> 100 µM	> 100 µM	> 100 µM	> 100 µM	> 100 µM	> 100 µM	> 100 µM	–	–	–	–	–	–
COc1ccc(C(=O)Nc2ccn(CCOC(=O)c3ccc(OC)cc3)c(=O)n2)cc1	–	–	> 100 µM	> 100 µM	> 100 µM	> 100 µM	> 100 µM	> 100 µM	> 100 µM	> 100 µM	–	–	–	–	–	–
Cl.[O-]c1cccc2cccnc12.[O-]c1cccc2cccnc12.[O-]c1cccc2cccnc12.[O-]c1cccc2cccnc12.[Ti+4]	–	–	1.6 µM	1.69 µM	> 100 µM	> 76 µM	–	–	–	0.365 µM	–	–	–	–	–	–
CCCCCC1CC=CC(NC(=O)OCc2ccccc2)C1/C=C/CCCC1OCCO1 (stereo not given)	–	–	> 100 µM	> 100 µM	> 100 µM	> 100 µM	> 100 µM	> 100 µM	> 100 µM	> 100 µM	–	–	–	–	–	–
CC1(C)C2=CCCC(=O)[C@@]2(C)CC[C@@H]1O	–	–	> 100 µM	> 100 µM	> 100 µM	> 100 µM	> 100 µM	> 100 µM	> 100 µM	> 100 µM	–	–	–	–	–	–
O=C(CC1(O)C(=O)Nc2c(Cl)cc(Cl)cc21)c1ccc([N+](=O)[O-])cc1 (stereo not given)	–	–	> 66 µM	> 100 µM	> 100 µM	> 100 µM	> 51.5 µM	22 µM	> 100 µM	53.1 µM	–	–	–	–	–	–
CC[C@@]1(O)C(=O)OCc2c1cc1n(c2=O)Cc2cc3cccc(N)c3nc2-1	–	–	> 100 µM	8.48 µM	–	> 100 µM	> 100 µM	> 100 µM	82.1 µM	–	> 100 µM	1.78 µM	26.2 µM	> 100 µM	13.1 µM	27.3 µM
